Results from ChEMBL document CHEMBL3886392, “Substituted imidazopyrazines” (2015).

Molecular target: T1, Dual specificity protein kinase TTK (Homo sapiens, UniProt P33981)
T1 sequence (P33981 whole entry): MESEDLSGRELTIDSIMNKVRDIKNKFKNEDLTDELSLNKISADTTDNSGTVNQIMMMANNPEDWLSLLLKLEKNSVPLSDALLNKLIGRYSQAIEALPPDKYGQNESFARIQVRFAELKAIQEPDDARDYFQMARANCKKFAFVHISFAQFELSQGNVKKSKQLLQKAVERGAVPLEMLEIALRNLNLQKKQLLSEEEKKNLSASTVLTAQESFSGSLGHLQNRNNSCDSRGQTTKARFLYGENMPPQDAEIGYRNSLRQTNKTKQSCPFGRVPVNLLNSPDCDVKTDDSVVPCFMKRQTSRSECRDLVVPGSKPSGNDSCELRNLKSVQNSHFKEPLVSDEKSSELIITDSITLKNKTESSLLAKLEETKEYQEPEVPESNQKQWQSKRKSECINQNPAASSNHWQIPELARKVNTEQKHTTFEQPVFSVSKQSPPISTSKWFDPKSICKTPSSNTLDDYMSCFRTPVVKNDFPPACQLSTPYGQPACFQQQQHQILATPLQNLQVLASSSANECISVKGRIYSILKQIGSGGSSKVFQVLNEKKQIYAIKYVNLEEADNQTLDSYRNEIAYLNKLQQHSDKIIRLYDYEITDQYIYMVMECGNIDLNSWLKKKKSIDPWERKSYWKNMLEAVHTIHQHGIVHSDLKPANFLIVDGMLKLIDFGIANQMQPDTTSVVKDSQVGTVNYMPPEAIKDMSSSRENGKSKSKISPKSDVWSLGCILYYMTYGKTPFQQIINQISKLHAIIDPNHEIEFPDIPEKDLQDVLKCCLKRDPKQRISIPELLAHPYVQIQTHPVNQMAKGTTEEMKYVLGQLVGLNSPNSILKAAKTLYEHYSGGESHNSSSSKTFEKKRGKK

IC50: 36 nM
SMILES: C#Cc1cn2c(-c3ccc(C(=O)NC4C[C@@H]4F)c(C)c3)cnc2c(NCCC(F)(F)F)n1 (stereo in doubt)
